# PubChem BioAssay AID342 (DTP/NCI, 2004)
# Several values for one entry are separate records, joined by “and”; a condition that tells them apart may be missing. Equal entries are not always repeated.
# Test system: Swiss mice, Sarcoma 180 sc, mean tumor weight T/C
# Experiment: NCI In Vivo Anticancer Drug Screen. Data for tumor model Sarcoma 180 (subcutaneous) in Swiss mice
# Conditions: endpoint: mean tumor weight, higher = larger tumour
# How it was run: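 Transplantable tumors were established in mice, compound was given, then survival or tumor size was recorded. The treated value was divided by the vehicle-control value.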
# [1] = dose: 300.0 mg/kg/injection, schedule: Q01DX007 (ip), vehicle: carboxymethylcellulose (CMC)
smiles,measurement,setting,value
OCC1OC(n2cnc3c(=S)nc[nH]c32)C(O)C1O (centres undefined),T/C,"dose: 10.7 mg/kg/injection, schedule: Q01DX007 (ip), vehicle: carboxymethylcellulose (CMC)",51 % of control
same,T/C,"dose: 17.04 mg/kg/injection, schedule: Q01DX007 (ip), vehicle: carboxymethylcellulose (CMC)",61 % of control
same,T/C,"dose: 20.0 mg/kg/injection, schedule: Q#A X014 (ip), vehicle: methylcellulose (MC)",63 % of control
same,T/C,"dose: 21.3 mg/kg/injection, schedule: Q01DX007 (ip), vehicle: carboxymethylcellulose (CMC)",40 % of control and 64 % of control
same,T/C,"dose: 28.4 mg/kg/injection, schedule: Q01DX007 (ip), vehicle: carboxymethylcellulose (CMC)",48 % of control
same,T/C,"dose: 37.5 mg/kg/injection, schedule: Q#A X014 (ip), vehicle: methylcellulose (MC)",56 % of control
same,T/C,"dose: 42.6 mg/kg/injection, schedule: Q01DX007 (ip), vehicle: carboxymethylcellulose (CMC)",42 % of control and 46 % of control
same,T/C,"dose: 62.0 mg/kg/injection, schedule: Q01DX007 (ip), vehicle: carboxymethylcellulose (CMC)",44 % of control
same,T/C,"dose: 75.0 mg/kg/injection, schedule: Q#A X014 (ip), vehicle: methylcellulose (MC)",22 % of control
same,T/C,"dose: 85.2 mg/kg/injection, schedule: Q01DX007 (ip), vehicle: carboxymethylcellulose (CMC)",41 % of control and 44 % of control
same,T/C,"dose: 100.0 mg/kg/injection, schedule: Q#A X014 (ip), vehicle: methylcellulose (MC)",20 % of control and 24 % of control
same,T/C,"dose: 125.0 mg/kg/injection, schedule: Q01DX007 (ip), vehicle: carboxymethylcellulose (CMC)",59 % of control
same,T/C,"dose: 250.0 mg/kg/injection, schedule: Q01DX007 (ip), vehicle: carboxymethylcellulose (CMC)",25 % of control
same,T/C,[1],21 % of control
same,T/C,"dose: 400.0 mg/kg/injection, schedule: Q01DX007 (ip), vehicle: carboxymethylcellulose (CMC)",19 % of control
same,T/C,"dose: 450.0 mg/kg/injection, schedule: Q01DX007 (ip), vehicle: carboxymethylcellulose (CMC)",11 % of control
O=C(O)C(=O)O.O=C([O-])C(=O)O.O=C([O-])C(=O)O.O=C([O-])C(=O)[O-].[K+].[U],T/C,"dose: 7.5 mg/kg/injection, schedule: Q#A X014 (ip), vehicle: saline",51 % of control and 59 % of control
same,T/C,"dose: 11.25 mg/kg/injection, schedule: Q#A X014 (ip), vehicle: saline",21 % of control
CCOC(C)C(/C=N/NC(N)=S)=NNC(N)=S (centres undefined),T/C,"dose: 15.0 mg/kg/injection, schedule: Q01DX007 (ip), vehicle: saline",82 % of control
same,T/C,"dose: 30.0 mg/kg/injection, schedule: Q01DX007 (ip), vehicle: saline",37 % of control
same,T/C,"dose: 60.0 mg/kg/injection, schedule: Q01DX007 (ip), vehicle: saline",47 % of control
same,T/C,"dose: 120.0 mg/kg/injection, schedule: Q01DX007 (ip), vehicle: saline",20 % of control
CCC(CC)C(O)CCCN(C)C (centres undefined),T/C,"dose: 100.0 mg/kg/injection, schedule: Q01DX007 (ip), vehicle: saline",103 % of control
same,T/C,"dose: 200.0 mg/kg/injection, schedule: Q01DX007 (ip), vehicle: saline",95 % of control
same,T/C,"dose: 400.0 mg/kg/injection, schedule: Q01DX007 (ip), vehicle: saline",75 % of control
CC(=O)OCC(=O)[C@@]1(O)CC[C@H]2[C@@H]3CCC4=CC(=O)C=C[C@]4(C)[C@H]3[C@@H](O)C[C@@]21C,T/C,"dose: 13.3 mg/kg/injection, schedule: Q01DX007 (sc), vehicle: steriod suspending solution",73 % of control
same,T/C,"dose: 20.0 mg/kg/injection, schedule: Q01DX007 (sc), vehicle: steriod suspending solution",62 % of control
same,T/C,"dose: 30.0 mg/kg/injection, schedule: Q01DX007 (sc), vehicle: steriod suspending solution",51 % of control
same,T/C,"dose: 45.0 mg/kg/injection, schedule: Q01DX007 (sc), vehicle: steriod suspending solution",23 % of control
O=C(O)C(=O)c1ccc(-c2ccccc2)cc1,T/C,"dose: 4.0 mg/kg/injection, schedule: Q01DX007 (ip), vehicle: carboxymethylcellulose (CMC)",83 % of control
same,T/C,"dose: 8.0 mg/kg/injection, schedule: Q01DX007 (ip), vehicle: carboxymethylcellulose (CMC)",106 % of control
same,T/C,"dose: 16.0 mg/kg/injection, schedule: Q01DX007 (ip), vehicle: carboxymethylcellulose (CMC)",71 % of control
same,T/C,"dose: 32.0 mg/kg/injection, schedule: Q01DX007 (ip), vehicle: carboxymethylcellulose (CMC)",80 % of control
O=C(O)Cc1ccc(C2CCCCC2)cc1,T/C,"dose: 37.5 mg/kg/injection, schedule: Q01DX007 (ip), vehicle: carboxymethylcellulose (CMC)",120 % of control
same,T/C,"dose: 75.0 mg/kg/injection, schedule: Q01DX007 (ip), vehicle: carboxymethylcellulose (CMC)",115 % of control
same,T/C,"dose: 150.0 mg/kg/injection, schedule: Q01DX007 (ip), vehicle: carboxymethylcellulose (CMC)",80 % of control
same,T/C,[1],70 % of control and 75 % of control
same,T/C,"dose: 600.0 mg/kg/injection, schedule: Q01DX007 (ip), vehicle: carboxymethylcellulose (CMC)",67 % of control
C[C@]12CC[C@@H]3c4ccc(OC5CCCCO5)cc4CC[C@H]3[C@@H]1CC[C@@H]2O (some centres undefined),T/C,"dose: 111.0 mg/kg/injection, schedule: Q01DX007 (ip), vehicle: steriod suspending solution",55 % of control
same,T/C,"dose: 166.6 mg/kg/injection, schedule: Q01DX007 (ip), vehicle: steriod suspending solution",20 % of control
same,T/C,"dose: 250.0 mg/kg/injection, schedule: Q01DX007 (ip), vehicle: steriod suspending solution",24 % of control
same,T/C,"dose: 375.0 mg/kg/injection, schedule: Q01DX007 (ip), vehicle: steriod suspending solution",17 % of control
CC[C@@H](O)C[C@H]1CCC[C@@]2(C[C@@H]3OC(=O)/C=C/[C@@](C)(O)[C@@H](O)[C@H](C)[C@@H](O)[C@H](OC4CCC(N(C)C)C(C)O4)[C@@H](O)[C@](C)(O)CCCCC/C=C/[C@@H]4CC(C)(C)O[C@@]4(O)C[C@H](O2)[C@H]3C)O1 (some centres undefined),T/C,"dose: 0.15 mg/kg/injection, schedule: Q01DX007 (sc), vehicle: steriod suspending solution",95 % of control
same,T/C,"dose: 0.23 mg/kg/injection, schedule: Q01DX007 (sc), vehicle: steriod suspending solution",113 % of control
same,T/C,"dose: 0.34 mg/kg/injection, schedule: Q01DX007 (sc), vehicle: steriod suspending solution",118 % of control
CCC(c1ccc(O)cc1)C(CC)c1ccc(OC)cc1 (centres undefined),T/C,"dose: 2.0 mg/kg/injection, schedule: Q#A X014 (sc), vehicle: steriod suspending solution",45 % of control and 53 % of control
same,T/C,"dose: 2.35 mg/kg/injection, schedule: Q#A X014 (ip), vehicle: methylcellulose (MC)",25 % of control
same,T/C,"dose: 3.5 mg/kg/injection, schedule: Q#A X014 (ip), vehicle: methylcellulose (MC)",32 % of control
same,T/C,"dose: 5.0 mg/kg/injection, schedule: Q#A X014 (ip), vehicle: methylcellulose (MC)",40 % of control
same,T/C,"dose: 5.5 mg/kg/injection, schedule: Q#A X014 (sc), vehicle: steriod suspending solution",39 % of control and 52 % of control
same,T/C,"dose: 7.5 mg/kg/injection, schedule: Q#A X014 (ip), vehicle: methylcellulose (MC)",41 % of control
same,T/C,"dose: 8.5 mg/kg/injection, schedule: Q#A X014 (ip), vehicle: distilled water + alcohol",15 % of control
same,T/C,"dose: 12.5 mg/kg/injection, schedule: Q#A X014 (ip), vehicle: distilled water + alcohol",27 % of control
same,T/C,"dose: 16.5 mg/kg/injection, schedule: Q#A X014 (sc), vehicle: steriod suspending solution",35 % of control and 48 % of control
same,T/C,"dose: 18.5 mg/kg/injection, schedule: Q#A X014 (ip), vehicle: distilled water + alcohol",12 % of control
same,T/C,"dose: 27.5 mg/kg/injection, schedule: Q#A X014 (ip), vehicle: distilled water + alcohol",19 % of control
same,T/C,"dose: 27.5 mg/kg/injection, schedule: Q#A X014 (ip), vehicle: olive oil, sesame oil, peanut oil",49 % of control
same,T/C,"dose: 27.75 mg/kg/injection, schedule: Q#A X014 (ip), vehicle: methylcellulose (MC)",24 % of control and 46 % of control
same,T/C,"dose: 41.5 mg/kg/injection, schedule: Q#A X014 (ip), vehicle: olive oil, sesame oil, peanut oil",48 % of control
same,T/C,"dose: 41.65 mg/kg/injection, schedule: Q#A X014 (ip), vehicle: methylcellulose (MC)",20 % of control and 24 % of control
same,T/C,"dose: 50.0 mg/kg/injection, schedule: Q#A X014 (sc), vehicle: steriod suspending solution",33 % of control and 36 % of control
same,T/C,"dose: 62.5 mg/kg/injection, schedule: Q#A X014 (ip), vehicle: methylcellulose (MC)",20 % of control and 32 % of control
same,T/C,"dose: 62.5 mg/kg/injection, schedule: Q#A X014 (ip), vehicle: olive oil, sesame oil, peanut oil",69 % of control
same,T/C,"dose: 94.0 mg/kg/injection, schedule: Q#A X014 (ip), vehicle: methylcellulose (MC)",28 % of control and 36 % of control
same,T/C,"dose: 94.0 mg/kg/injection, schedule: Q#A X014 (ip), vehicle: olive oil, sesame oil, peanut oil",42 % of control
same,T/C,"dose: 150.0 mg/kg/injection, schedule: Q#A X014 (sc), vehicle: steriod suspending solution",29 % of control and 44 % of control
O=[N+]([O-])c1ccc(/C=N\Nc2ccc([N+](=O)[O-])cn2)cc1,T/C,"dose: 5.1 mg/kg/injection, schedule: Q#A X014 (ip), vehicle: methylcellulose (MC)",88 % of control
same,T/C,"dose: 10.25 mg/kg/injection, schedule: Q#A X014 (ip), vehicle: methylcellulose (MC)",61 % of control
same,T/C,"dose: 12.0 mg/kg/injection, schedule: Q#A X014 (ip), vehicle: methylcellulose (MC)",98 % of control
same,T/C,"dose: 20.55 mg/kg/injection, schedule: Q#A X014 (ip), vehicle: methylcellulose (MC)",64 % of control
same,T/C,"dose: 41.1 mg/kg/injection, schedule: Q#A X014 (ip), vehicle: methylcellulose (MC)",47 % of control
CC(=O)OCC1OC(n2cnc3c(=S)nc[nH]c32)C(OC(C)=O)C1OC(C)=O (centres undefined),T/C,"dose: 20.0 mg/kg/injection, schedule: Q01DX007 (ip), vehicle: carboxymethylcellulose (CMC)",81 % of control
same,T/C,"dose: 30.0 mg/kg/injection, schedule: Q01DX007 (ip), vehicle: carboxymethylcellulose (CMC)",75 % of control
same,T/C,"dose: 45.0 mg/kg/injection, schedule: Q01DX007 (ip), vehicle: carboxymethylcellulose (CMC)",54 % of control
